Reference: patent US6888016B2, “Mixtures for stimulating glucose up-take” (Loders Croklaan USA LLC, priority 2001, dated 2005)

Test system: 3T3-L1 adipocytes
Experiment: Insulin stimulated glucose uptake (ISGU), [3H]2-deoxyglucose incorporation in differentiated adipocytes
Format: cell-based, Murine
Conditions: 3 days incubation; for increase in glucose uptake in combination with CLA over CLA alone: compound A in combination with CLA, 1 nM insulin, significantly higher than CLA alone, P<0.05 Students T-test, FIG. 2
Procedure: Murine (3T3-L1 cells; ATCC CL-173) were seeded into multi-well plates and incubated in growth medium (DMEM supplemented with 10% FCS, 2 mM L-glutamine, 100 iu/ml penicillin and 100 μg/ml streptomycin) at 37° C./5% CO2 until 2 days post-confluence (day 0). Differentiation was carried out approximately according to Iwata et al (Diabetes 2001 50: 1083-1092). Briefly, differentiation was induced by changing to growth medium containing 3-isobutyl-1-methylxanthine (0.5 mM), dexamethasone (0.25 μM) and 1 μM insulin for 3 days, and then growth medium containing 0.8 μM insulin for another 3 days. Finally cells were retained in serum free growth medium until ready for experimentation, typically cells were used between days 6-9.
Pine nut oil (PNO) and palm kernel oil (PKO) fatty acids were prepared by saponification of pine nut oil or palm kernel oil. PNO contains high levels of PUFAs, in particular high levels of pinolenic acid. PKO has high levels of medium chain fatty acids (C8-12). All samples were prepared as 1 mg/ml stocks in ethanol and diluted in media accordingly with the following exceptions. IGF-1 was prepared by initially dissolving in […], followed by the addition of 400 μl PBS supplemented with 1 mg/ml BSA. This was diluted with media to the correct concentration. Ascorbic acid, sodium vanadate and aspartame were made up in DMEM.
Differentiated adipocytes were incubated for a period of 3 days in DMEM (containing 2 mM L-glutamine, 100 iu/ml penicillin, 100 μg/ml streptomycin, 1 nM insulin and 10% FCS) supplemented with or without CLA and/or compound As. The cells were then washed three times with DMEM (containing 1 mM deoxyglucose). Insulin stimulated glucose uptake was carried out according to Iwata et al (Diabetes 2001 50: 1083-1092). Briefly, cells were stimulated with 1 nM insulin in Krebs Ringer Phosphate (KRP) and HEPES buffer [10 mM HEPES, 131.2 mM NaCl, 4.7 mM KCl, 2.5 mM CaCl2, 1.2 mM MgSO4, 2.5 mM sodium phosphate buffer, pH 7.4] with 1% BSA at 37° C. […] Radioactive incorporation was measured by scintillation counting of 100 μl of each cell lysate. […]

Compound | insulin stimulated glucose uptake (ISGU), effect of CLA alone (CLA fatty acids at 10 or 50 μg/ml, compared with control differentiated adipocytes, radiolabel incorporation (3H-DPM), FIG. 1) | increase in glucose uptake in combination with CLA over CLA alone
Conjugated linoleic acid [CLA] | reduces ISGU compared with the control | –
O=C1O[C@H]([C@@H](O)CO)C(O)=C1O [Vit C, Ascorbic acid] | – | 20%
IGF-1: IGF-1, purified or in natural extracts; compound A | – | 39%
